The pIC50 is the IC50 on a negative log10 scale, so that one unit is a factor of ten. A lower pIC50 goes with a high IC50.

Here are results for 4 compounds from ChEMBL document CHEMBL1148793, “Influence of conformation on GRIND-based three-dimensional quantitative structure-activity relationship (3D-QSAR)” (J Med Chem, 2007).

pIC50: −log10 of the molar value.

This test concerns the target T1, Lanosterol synthase (Homo sapiens, UniProt P48449).
T1 sequence (P48449 whole entry): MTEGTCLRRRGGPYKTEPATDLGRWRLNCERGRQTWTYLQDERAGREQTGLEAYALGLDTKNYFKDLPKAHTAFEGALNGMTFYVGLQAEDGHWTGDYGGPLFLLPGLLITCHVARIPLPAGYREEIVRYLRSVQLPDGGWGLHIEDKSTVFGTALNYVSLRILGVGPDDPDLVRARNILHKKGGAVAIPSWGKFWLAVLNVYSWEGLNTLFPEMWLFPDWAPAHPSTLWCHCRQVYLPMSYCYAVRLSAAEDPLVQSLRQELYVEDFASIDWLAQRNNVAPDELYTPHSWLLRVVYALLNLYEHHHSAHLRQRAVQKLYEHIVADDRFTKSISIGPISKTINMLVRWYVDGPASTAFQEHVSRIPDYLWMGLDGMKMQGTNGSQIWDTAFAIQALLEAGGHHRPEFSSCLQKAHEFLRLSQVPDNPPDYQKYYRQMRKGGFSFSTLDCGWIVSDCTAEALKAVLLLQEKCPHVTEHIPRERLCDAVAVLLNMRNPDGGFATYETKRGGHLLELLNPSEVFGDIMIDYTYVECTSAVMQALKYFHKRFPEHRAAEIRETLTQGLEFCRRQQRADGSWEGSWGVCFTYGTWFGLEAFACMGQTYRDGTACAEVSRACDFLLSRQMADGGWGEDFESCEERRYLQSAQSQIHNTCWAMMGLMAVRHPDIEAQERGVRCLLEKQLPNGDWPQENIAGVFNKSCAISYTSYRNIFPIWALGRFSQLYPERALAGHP
Kind of test: Inhibition of oxidosqualene cyclase.

As to `CN(C/C=C/COc1ccc(C(=O)c2ccc(Br)cc2)cn1)C1CC1`, the pIC50 was 7.72.
To `C=CCN(C)CCCCCCOc1ccc2c(c1)c(C)nn2C` belongs 6.62.
Turning to `C=CCN(C)CCCCCCOc1ccc2c(c1)S(=O)(=O)C=C2c1ccc(Br)cc1`, the pIC50 is 8.11.
Compound `CN(CCCCCCOc1ccc(C(=O)c2ccc(Br)cc2)cc1)CC1CC1` gave a pIC50 of 7.50.
